The values that follow come from patent US20060135480A1, “Derivatives of succinic and glutaric acids and analogs thereof useful as inhibitors of phex” (Enobia Pharma, priority 2002, published 2006).

The test has as its target T1, sPHEX (Homo sapiens, UniProt P78562).
T1 construct: The soluble form of the metallopeptidase PHEX (sPHEX) was purified to homogeneity; made in house
T1 sequence (P78562 53-749 limits assumed): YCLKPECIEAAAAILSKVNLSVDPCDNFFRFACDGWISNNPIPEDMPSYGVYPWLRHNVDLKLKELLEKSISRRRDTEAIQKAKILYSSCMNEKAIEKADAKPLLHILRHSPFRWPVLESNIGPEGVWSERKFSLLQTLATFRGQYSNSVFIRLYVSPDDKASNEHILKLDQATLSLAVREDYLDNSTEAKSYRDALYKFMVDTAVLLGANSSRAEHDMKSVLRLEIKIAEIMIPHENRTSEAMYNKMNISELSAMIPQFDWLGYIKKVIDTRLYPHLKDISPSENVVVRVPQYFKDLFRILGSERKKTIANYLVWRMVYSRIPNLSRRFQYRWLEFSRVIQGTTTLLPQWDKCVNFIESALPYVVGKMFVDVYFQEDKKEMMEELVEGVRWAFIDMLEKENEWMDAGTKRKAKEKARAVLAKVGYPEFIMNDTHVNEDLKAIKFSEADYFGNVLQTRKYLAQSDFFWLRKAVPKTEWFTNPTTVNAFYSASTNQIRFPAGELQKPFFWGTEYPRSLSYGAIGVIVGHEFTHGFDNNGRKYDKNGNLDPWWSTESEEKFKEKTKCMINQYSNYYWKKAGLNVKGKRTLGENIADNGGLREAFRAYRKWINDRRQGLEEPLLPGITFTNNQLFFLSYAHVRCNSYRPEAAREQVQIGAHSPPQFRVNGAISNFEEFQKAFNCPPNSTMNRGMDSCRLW
The experiment in a line: sPHEX inhibitor IC50 determination using a fluorogenic substrate (Abz-GFSDYK-Dnp, S3). To be noted: fluorogenic substrate 20 μM, 100 ng sPHEX, pH 6.5. The format is biochemical. Here is the method: The soluble form of the metallopeptidase PHEX (sPHEX) was purified to homogeneity according to the methods of Boileau and Crine (WO 00/50580). sPHEX quantity was measured with the Bradford assay (BioRad) using BSA as a standard.
sPHEX activity was determined using a fluorogenic substrate in which an increase of fluorescence was proportional to substrate conversion to products.
S3 was synthesized at Dr. Gilles Lajoie's laboratories (University of Western Ontario, Canada) by standard solid phase peptide synthesis. The fluorescent reaction product was excited at 320 nm to fluoresce at 420 nm. Fluorescence was recorded at 420 nm every five minutes over a one-hour period on a fluorescence plate reader (Perkin-Elmer, HTS-7000) to calculate the initial rate of the reaction. Typically, the reaction was carried out in 200 μl of buffer M (50 mM Mes(NaOH) pH 6.5, 150 mM NaCl) containing 100 ng of purified sPHEX and 20 μM of fluorigenic substrate to initiate the reaction. Enzymatic activity was determined by subtracting either the initial rate of substrate in buffer (solvolysis), or the typical reaction rate in which 5 mM EDTA was added prior to initiating the reaction.
sPHEX inhibitor IC50 determinations were done using the tested inhibitor at various concentrations coming from a serial dilution (usually ranging from 10^−3 M to 10^−12 M) in the reaction described above. IC50 values were calculated using the iterative four parameters non-linear regression formula from the GraphPad™ software (Prism).
On to `O=C(O)CC[C@H](NC(=O)[C@@H](S)Cc1ccccc1)C(=O)N[C@@H](Cc1c[nH]c2ccccc12)C(=O)O` [Example 114], for which inhibition was half-maximal at 320 nM (IC50).

As to `CNC(=O)[C@H](Cc1c[nH]c2ccccc12)NC(=O)[C@H](CC(=O)O)NC(=O)CS` [Example 115, N-[2-(1H-indol-3-yl)-methylcarbamoyl-ethyl]-3-(2-mercapto-acetylamino)-succinamic acid], the midpoint of inhibition, the IC50, lay at 1300 nM.

In the case of `O=C(O)C[C@H](NC(=O)[C@@H](S)Cc1ccccc1)C(=O)N[C@@H](Cc1c[nH]c2ccccc12)C(=O)N[C@@H](CO)C(=O)O` [Example 116, N-[1-(1-Carboxy-2-hydroxy-ethylcarbamoyl)-2-(1H-indol-3-yl)-ethyl]-3-(2-mercapto-3-phenyl-propionylamino)-succinamic acid], it took 4 nM to reach half-maximal inhibition (IC50).

Turning to `COC(=O)[C@H](Cc1c[nH]c2ccccc12)NC(=O)[C@H](CC(=O)O)NC(=O)CS` [Example 117, N-[2-(1H-indol-3-yl)-methoxycarbonyl-etjyl]-3-(2-mercapto-acetylamino)-succinamic acid], the IC50 – broadly, the concentration needed to halve the response being measured – worked out at 2600 nM.

`O=C(O)C[C@H](NC(=O)[C@@H](S)Cc1ccccc1)C(=O)NCCc1c[nH]c2ccccc12` [Example 118, N-[2-(1H-indol-3-yl)l-ethyl]-3-(2-mercapto-3-phenyl-propionylamino)-succinamic acid] gave an IC50 of 140 nM.

For the molecule `N#Cc1ccc(-c2ccc(CCNC(=O)C(CC(=O)O)CC(=O)NO)cc2)cc1` (stereo not shown) [Example 130, 3-[2-(4′-Cyano-biphenyl-4-yl)-ethylcarbamoyl]-4-hydroxycarbamoyl-butyric acid], the IC50 came out at 190 nM.

Turning to `O=C(O)CC(CC(=O)NO)C(=O)NCCc1ccc(-c2ccccn2)cc1` (stereo not shown) [Example 132, 4-Hydroxycarbamoyl-3-[2-(4-pyridin-2-yl-phenyl)-ethylcarbamoyl]-butyric acid], the IC50 is 240 nM.

As to `O=C(O)CC(CC(=O)NO)C(=O)NCCCCc1ccccc1` (stereo not shown) [Example 134, 4-Hydroxycarbamoyl-3-(4-phenyl-butylcarbamoyl)-butyric acid], the IC50 came to 560 nM.

`O=C(O)CC(CC(=O)NO)C(=O)NCCOc1ccccc1` (stereo not shown) [Example 138, 4-Hydroxycarbamoyl-3-(2-phenoxy-ethylcarbamoyl)-butyric acid] showed an IC50 of 860 nM.

For the molecule `O=C(O)CC(CC(=O)NO)C(=O)NCCc1ccc(-c2ccc(O)cc2)cc1` (stereo not shown) [Example 140, 3-[2-(4′-Hydroxy-biphenyl-4-yl)-ethylcarbamoyl]4-hydroxycarbamoyl-butyric acid], half-maximal inhibition (IC50) was put at 360 nM.

In the case of `O=C(O)CC(CC(=O)NO)C(=O)NCC(c1ccccc1)c1ccccc1` (stereo not shown) [Example 142, 3-(2,2-Diphenyl-ethylcarbamoyl)-4-hydroxycarbamoyl-butyric acid], the midpoint of inhibition, the IC50, lay at 54 nM.

The molecule `O=C(O)CC(CC(=O)NO)C(=O)NCCCCCO` (stereo not shown) [Example 148, 4-Hydroxycarbamoyl-3-(5-hydroxy-pentylcarbamoyl)-butyric acid] came in with an IC50 of 1700 nM.

The molecule `O=C(O)CC(CC(=O)NO)C(=O)NCc1ccc(-c2ccccc2)cc1` (stereo not shown) [Example 150, 3-[(Biphenyl-4-ylmethyl)-carbamoyl]-4-hydroxycarbamoyl-butyric acid] registered an IC50 of 270 nM.

Regarding `O=C(O)CC(CCC(=O)NO)C(=O)NCCc1ccc(-c2ccccc2)cc1` (stereo not shown) [Example 152, 3-(2-Biphenyl-4-yl-ethylcarbamoyl)-5-hydroxycarbamoyl-pentanoic acid], the IC50 amounted to 1300 nM.

For `O=C(O)C[C@H](NC(CCc1ccccc1)P(=O)(O)O)C(=O)N[C@@H](Cc1c[nH]c2ccccc12)C(=O)O` (stereo partly shown) [Example 162, N-[1-carboxy-2-(1H-indol-3-yl)-ethyl]-3-(3-phenyl-1-phosphono-propylamino)-succinic acid], the IC50 is 9700 nM.

`O=C(O)CC(CC(=O)O)C(=O)NCCc1ccc2ccccc2c1` [Example 169, 3-(2-Naphthalen-2-yl-ethylcarbamoyl)-pentanedioic acid] registered an IC50 of 19000 nM.
